Results on three compounds are retold here after patent publication US20110301110A1, “TRIM33 (TIF1gamma) AS A NEW DIAGNOSTIC MARKER OF CHRONIC MYELOMONOCYTIC LEUKEMIA (CMML)” (priority 2010, published 2011).

In assay [1] the test system is TIF1γ expression in sorted PB monocytes (CD14+ cells). Kind of assay: TIF1γ expression (RQ-PCR, immuno-blotting) in sorted PB monocytes (CD14+ cells) of a CMML patient before and after treatment with decitabine. It counts as in vivo, human. The conditions noted are these: one CMML patient with very low Tif1γ level, after 5 cycles of decitabine; sorted PB monocytes (FIG. 7A). Here is the method:
Protein extracts were prepared from purified human monocytes (CD14+ cells) for SDS-PAGE and immuno-blotting with anti-TIF1γ antibody. Equivalent loading of lanes was controlled by the use of an anti-HSC70 antibody.

The test system of assay [2] is Tif1γ-deficient Lin- cells. The experiment in a line: Tif1γ-deficient Lin- cells cultured for 10 days in the presence or absence of TGF-β, myelopoiesis. The conditions noted are these: 10 days culture. It counts as cell-based, mouse. Here is the method:
(§1) To answer this question, control and Tif1γ-deficient Lin^− cells were cultured for 10 days in the presence or absence of TGF-β. Cells were also treated with TGF-β inhibitor.

In another assay the test system is control Lin- cells. Kind of assay: control Lin- cells cultured for 10 days in the presence or absence of TGF-β or TGF-β inhibitor, formation of myeloid cells. The conditions noted are these: 10 days culture, compared to untreated cultures. It counts as cell-based, mouse. The procedure: as §1
The subject of another assay is NALM-6. The conditions noted are these: NALM-6 human tumor cell line; cited from earlier work.
The subject of another assay is HCT116. The conditions noted are these: HCT116 human tumor cell line; cited from earlier work.

On to `Nc1ncn([C@H]2C[C@H](O)[C@@H](CO)O2)c(=O)n1` [decitabine, 4-amino-1-(2-deoxy-b-D-erythro-pentofuranosyl)-1,3,5-triazin-2(1 H)-one], for which, in assay [1], the “TIF1γ expression, increase compared to the level measured before treatment” value was determined as 8 fold. With TGF-β, the myelopoiesis result in assay [2] is on record as “did not inhibit myelopoiesis”. For the same compound, in the assay with control Lin- cells, the “formation of myeloid cells” value is “limited formation of myeloid cells”. For `O=C(O)C(Cc1c[nH]c2ccccc12)N1C(=O)c2ccccc2C1=O` (centres unmarked) [RG 108, N-phthalyl-1-tryptophan], the proliferation entry in the assay with NALM-6 and with HCT116 was “inhibits” throughout.
